Reference: ChEMBL document CHEMBL1129144, “Stereoselective synthesis and biological activity of cis azetidinones as cholesterol absorption inhibitors” (1996)

What was measured:
Assay type in all cases: functional
Cricetinae gen. sp. [1] = assay: Compound was tested for cholesterol inhibition in the cholesterol-fed hamster model after oral administration.
Cricetinae gen. sp. [2] = assay: Compound was tested for % inhibition of cholesterol in the cholesterol-fed hamster model after oral administration at a dose of 25 mg/kg/day.
Cricetinae gen. sp. [3] = assay: Compound was tested for % inhibition of cholesterol in the cholesterol-fed hamster model after oral administration at a dose of 10 mg/kg/day.
Cricetinae gen. sp. [4] = assay: Compound was tested for cholesterol reduction in liver in the cholesterol-fed hamster model after oral administration.
Cricetinae gen. sp. [5] = assay: Compound was tested for % inhibition of cholesterol in the cholesterol-fed hamster model after oral administration at a dose of 3 mg/kg/day.
Cricetinae gen. sp. [6] = assay: Compound was tested for % inhibition of cholesterol in the cholesterol-fed hamster model after oral administration at a dose of 100 mg/kg/day.

Row | SMILES | Reduction (Cricetinae gen. sp. [3]) [%] | ED50 (Cricetinae gen. sp. [4]) [mg/kg/day] | other results
1 | COc1ccc(C2N(c3ccc(OC)cc3)C(=O)[C@]23CC[C@H](c2ccccc2)CC3)cc1 (stereo partly drawn) |  |  | ED50 (Cricetinae gen. sp. [1]): 3 mg/kg
2 | COc1ccc([C@H]2[C@H](CCCc3ccccc3)C(=O)N2c2ccccc2)cc1 |  |  | Reduction (Cricetinae gen. sp. [2]): 0%
3 | COc1ccc([C@H]2[C@@H]([C@H](O)CCc3ccccc3)C(=O)N2c2ccccc2)cc1 | 0 |  | 
4 | COc1ccc([C@@H]2[C@@H](CCCc3ccccc3)C(=O)N2c2ccccc2)cc1 |  | 0.54 | 
5 | COc1ccc([C@@H]2[C@H]([C@@H](O)CCc3ccccc3)C(=O)N2c2ccccc2)cc1 |  |  | Reduction (Cricetinae gen. sp. [5]): 0%
6 | COc1ccc([C@@H]2[C@@H]([C@@H](O)CCc3ccccc3)C(=O)N2c2ccccc2)cc1 |  | 8.6 | 
7 | COc1ccc([C@H]2[C@H]([C@@H](O)CCc3ccccc3)C(=O)N2c2ccccc2)cc1 | 0 |  | 
8 | COc1ccc([C@@H]2[C@H]([C@H](O)CCc3ccccc3)C(=O)N2c2ccccc2)cc1 |  | 0.4 | 
9 | COc1ccc([C@H]2[C@@H](CCCc3ccccc3)C(=O)N2c2ccccc2)cc1 |  |  | Reduction (Cricetinae gen. sp. [6]): 0%
10 | COc1ccc([C@@H]2[C@H](CCCc3ccccc3)C(=O)N2c2ccccc2)cc1 |  | 4 | 
11 | COc1ccc([C@H]2[C@H]([C@H](O)CCc3ccccc3)C(=O)N2c2ccccc2)cc1 | 38 |  | 
12 | COc1ccc([C@@H]2[C@@H]([C@H](O)CCc3ccccc3)C(=O)N2c2ccccc2)cc1 |  | 1.2 | 
13 | COc1ccc([C@H]2[C@@H]([C@@H](O)CCc3ccccc3)C(=O)N2c2ccccc2)cc1 | 22 |  | 
